# Source: patent US20230200390A1, “SELECTIVE HERBICIDES BASED ON SUBSTITUTED ISOXAZOLIN CARBOXAMIDES AND MEFENPYR-DIETHYL” (BAYER AKTIENGESELLSCHAFT, priority 2020, published 2023)
# Key:
# Type in all cases: in vivo
# [1] = system: spring wheat, TRZAS Triso; test: Treatment 1 day before: safener applied one day before herbicide, crop damage; details: 21 DAT; for HER effect + SAF / Reduction [%] / Reduction [Difference]: mefenpyr-diethyl 100 g a.i./ha 1 day before
# Description: (§1) Seeds of crops (spring wheat, TRZAS; spring barley, HORVS; maize, ZEAMA) were placed in sandy loam soil in pots of a diameter of 7-8 cm, covered with soil, and cultivated in a greenhouse under good growth conditions until plants were at the 1-3 leaf stage (BBCH 11-13). For split safener and herbicide treatment, first the safener was applied followed by the herbicide treatment on the following day. The safener and herbicides were formulated as WP and sprayed onto the green parts of the plants as an aqueous suspension at an equivalent water application rate of 300 l/ha, with addition of wetting agent and adjuvants (e.g. Mero, 1.5 l/ha; ammonium sulphate, 2 kg/ha). An equivalent set of plants was treated with the herbicides but without the prior safener treatment.
# (§2) After application, the test plants were kept in the greenhouse under good growth conditions. 10 and 21 days after treatment (DAT) with the herbicide, % crop damage observed on the treated plants was scored visually in comparison to control plants that had not received any safener or herbicide treatment.
# [2] = system: spring barley, HORVS Montoya; test: as above; details: 10 DAT
# Description: as §1, §2
# [3] = system: spring wheat, TRZAS Triso; test: Tank-mix; post-emergence: crop damage by herbicide with/without safener mefenpyr-diethyl; details: 10 DAT
# Method in brief: (§3)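 Visual percent crop damage (0–100 relative to untreated plants) assessed 1–3 weeks post-application. Plants in sandy loam were sprayed at the 1–3-leaf stage with herbicide with or without safener at several rates, water volume 300 l/ha.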
# [4] = system: spring barley, HORVS Montoya; test: as above
# Method in brief: as §3
# [5] = system: spring wheat, TRZAS Triso; test: Seed treatment with safener; post-emergence herbicide, crop damage; details: 10 DAT; for HER effect + SAF [%] (crop damage) / Reduction [%] / Reduction [Difference]: mefenpyr-diethyl 0.5 g a.i./kg seed; for HER effect [%] (crop damage, herbicide without safener): no safener
# Method in brief: (§4)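 Crop injury was rated visually in % at 10 and 21 days after post-emergence spraying at the 2-leaf stage. The herbicide was a WP in 300 l/ha water plus 1 l/ha MERO. Plants grew from seed either safener-coated at stated g a.i./kg rates via a milk-diluted slurry, or untreated.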
# [6] = system: spring barley, HORVS Montoya; test: as above; details: for HER effect + SAF / Reduction [%] / Reduction [Difference]: mefenpyr-diethyl 0.5 g a.i./kg seed
# Method in brief: as §4
# [7] = HER 100 g a.i./ha, mefenpyr-diethyl 100 g a.i./ha 1 day before
# [8] = HER 1.5 g a.i./ha + mefenpyr-diethyl 50 g a.i./ha
# [9] = HER 6 g a.i./ha + mefenpyr-diethyl 50 g a.i./ha
# [10] = HER 24 g a.i./ha + mefenpyr-diethyl 100 g a.i./ha
# [11] = HER 32 g a.i./ha + mefenpyr-diethyl 100 g a.i./ha, 21 DAT
# [12] = HER 8 g a.i./ha post-emergence, 21 DAT
# [13] = HER 32 g a.i./ha post-emergence, 21 DAT
# [14] = HER 8 g a.i./ha + mefenpyr-diethyl 50 g a.i./ha
# [15] = HER 8 g a.i./ha + mefenpyr-diethyl 50 g a.i./ha, 10 DAT
# [16] = HER 8 g a.i./ha post-emergence, 10 DAT
# [17] = HER 32 g a.i./ha post-emergence, 10 DAT
compound,measurement,setting,value
CCOC(=O)C1C=CC(NC(=O)C2(C(F)(F)F)CC(c3ccccc3)=NO2)C1 (stereo not shown) [Example 1.9],HER effect + SAF,[1]; HER 100 g a.i./ha,20%
same,Reduction [%],[1]; HER 100 g a.i./ha,67%
same,Reduction [Difference],[1]; HER 100 g a.i./ha,40
same,HER effect + SAF,[1]; HER 200 g a.i./ha,25%
same,Reduction [%],[1]; HER 200 g a.i./ha,64%
same,Reduction [Difference],[1]; HER 200 g a.i./ha,45
same,HER effect,[1]; herbicide alone 100 g a.i./ha,60%
same,HER effect,[1]; herbicide alone 200 g a.i./ha,70%
same,HER effect + SAF,[2]; [7],20%
same,Reduction [%],[2]; [7],50%
same,Reduction [Difference],[2]; [7],20
same,HER effect,[2]; herbicide alone 100 g a.i./ha,40%
CC(C)OC(=O)C1CC(NC(=O)C2(C)CC(c3cccc(F)c3)=NO2)CO1 (mixture of isomers) [Example 1.78],HER effect + SAF,[3]; [8],0%
same,Reduction [%],[3]; [8],100%
same,Reduction [Difference],[3]; [8],20
same,HER effect + SAF,[3]; [9],10%
same,Reduction [%],[3]; [9],86%
same,Reduction [Difference],[3]; [9],60
same,HER effect + SAF,[3]; [10],30%
same,Reduction [%],[3]; [10],57%
same,Reduction [Difference],[3]; [10],40
same,HER effect,[3]; herbicide alone 1.5 g a.i./ha,20%
same,HER effect,[3]; herbicide alone 6 g a.i./ha,70%
same,HER effect,[3]; herbicide alone 24 g a.i./ha,70%
same,HER effect + SAF,[4]; [11],10%
same,Reduction [%],[4]; [11],75%
same,Reduction [Difference],[4]; [11],30
same,HER effect,"[4]; herbicide alone 32 g a.i./ha, 21 DAT",40%
same,HER effect + SAF [%] (crop damage),[5]; HER dose 6 g a.i./ha,30%
same,Reduction [%],[5]; HER dose 6 g a.i./ha,57%
same,Reduction [Difference],[5]; HER dose 6 g a.i./ha,40
same,"HER effect [%] (crop damage, herbicide without safener)",[5]; HER dose 6 g a.i./ha,70%
same,HER effect + SAF [%] (crop damage),[5]; HER dose 24 g a.i./ha,30%
same,Reduction [%],[5]; HER dose 24 g a.i./ha,57%
same,Reduction [Difference],[5]; HER dose 24 g a.i./ha,40
same,"HER effect [%] (crop damage, herbicide without safener)",[5]; HER dose 24 g a.i./ha,70%
same,HER effect + SAF,[6]; [12],0%
same,Reduction [%],[6]; [12],100%
same,Reduction [Difference],[6]; [12],20
same,HER effect + SAF,[6]; [13],10%
same,Reduction [%],[6]; [13],75%
same,Reduction [Difference],[6]; [13],30
same,HER effect,"[6]; herbicide alone 8 g a.i./ha post-emergence, 21 DAT",20%
same,HER effect,"[6]; herbicide alone 32 g a.i./ha post-emergence, 21 DAT",40%
C=CC1(C(=O)NC2COC(C(=O)OCCOC)C2)CC(c2cc(C)cc(F)c2)=NO1 (mixture of isomers) [Example 1.65],HER effect + SAF,[3]; [14],0%
same,Reduction [%],[3]; [14],100%
same,Reduction [Difference],[3]; [14],20
same,HER effect,[3]; herbicide alone 8 g a.i./ha,20%
same,HER effect + SAF,[4]; [15],20%
same,Reduction [%],[4]; [15],75%
same,Reduction [Difference],[4]; [15],60
same,HER effect,"[4]; herbicide alone 8 g a.i./ha, 10 DAT",80%
same,HER effect + SAF [%] (crop damage),[5]; HER dose 8 g a.i./ha,0%
same,Reduction [%],[5]; HER dose 8 g a.i./ha,100%
same,Reduction [Difference],[5]; HER dose 8 g a.i./ha,20
same,"HER effect [%] (crop damage, herbicide without safener)",[5]; HER dose 8 g a.i./ha,20%
same,HER effect + SAF,[6]; [16],20%
same,Reduction [%],[6]; [16],75%
same,Reduction [Difference],[6]; [16],60
same,HER effect + SAF,[6]; [17],50%
same,Reduction [%],[6]; [17],38%
same,Reduction [Difference],[6]; [17],30
same,HER effect,"[6]; herbicide alone 8 g a.i./ha post-emergence, 10 DAT",80%
same,HER effect,"[6]; herbicide alone 32 g a.i./ha post-emergence, 10 DAT",80%
